{
  "source": "paper PMC5218480",
  "about": "(PLoS ONE, 2017)",
  "system": "MV-4-11 cells",
  "assay": "Gene expression microarray analysis (Affymetrix PrimeView) and GSEA",
  "type": "cell-based, human",
  "parameters": "RFU PODN (11730768_x_at) / Fold change /veh PODN (11730768_x_at) / RFU LINC00158 (11744669_a_at) / Fold change /veh LINC00158 (11744669_a_at) / RFU DUSP10 (11751237_a_at) / Fold change /veh DUSP10 (11751237_a_at) / RFU ID3 (11757404_x_at) / Fold change /veh ID3 (11757404_x_at) / RFU PLEKHG5 (11737974_s_at) / Fold change /veh PLEKHG5 (11737974_s_at) / RFU LRRC4B (11730491_at) / Fold change /veh LRRC4B (11730491_at) / RFU GIMAP4 (11747438_a_at) / Fold change /veh GIMAP4 (11747438_a_at) / RFU KRT8 (11758183_x_at) / Fold change /veh KRT8 (11758183_x_at) / RFU CNN1 (11734310_a_at) / Fold change /veh CNN1 (11734310_a_at) / RFU VPS37D (11726825_at) / Fold change /veh VPS37D (11726825_at) / RFU C10orf10 (11716522_x_at) / Fold change /veh C10orf10 (11716522_x_at) / RFU KIR2DL2 /// KIR2DL4 /// KIR2DL5A /// KIR2DL5B /// KIR2DS1 /// KIR2DS2 /// KIR2DS3 /// KIR2DS4 /// KIR3DL3 /// KIR3DL3 /// KIR3DS1 (11738374_at) / Fold change /veh KIR2DL2 /// KIR2DL4 /// KIR2DL5A /// KIR2DL5B /// KIR2DS1 /// KIR2DS2 /// KIR2DS3 /// KIR2DS4 /// KIR3DL3 /// KIR3DL3 /// KIR3DS1 (11738374_at) / RFU C1QL1 (11718748_at) / Fold change /veh C1QL1 (11718748_at) / RFU TMPRSS4 (11747572_a_at) / Fold change /veh TMPRSS4 (11747572_a_at) / RFU HAMP (11756126_x_at) / Fold change /veh HAMP (11756126_x_at) / RFU RNFT2 (11725882_a_at) / Fold change /veh RNFT2 (11725882_a_at) / RFU NR4A2 (11747474_a_at) / Fold change /veh NR4A2 (11747474_a_at) / RFU ABCC12 (11746883_a_at) / Fold change /veh ABCC12 (11746883_a_at) / RFU TMEM136 (11760407_x_at) / Fold change /veh TMEM136 (11760407_x_at) / RFU CLDN22 /// WWC2 (11732394_at) / Fold change /veh CLDN22 /// WWC2 (11732394_at) / RFU HLA-DPB1 (11760878_x_at) / Fold change /veh HLA-DPB1 (11760878_x_at) / RFU SPINT1 (11716480_a_at) / Fold change /veh SPINT1 (11716480_a_at) / RFU GAP43 (11754022_s_at) / Fold change /veh GAP43 (11754022_s_at) / RFU A4GNT (11735810_at) / Fold change /veh A4GNT (11735810_at) / RFU PRB3 (11715151_x_at) / Fold change /veh PRB3 (11715151_x_at) / RFU TUBB4B (11761932_at) / Fold change /veh TUBB4B (11761932_at) / RFU CAPN14 (11732068_a_at) / Fold change /veh CAPN14 (11732068_a_at) / RFU TMCC2 (11721928_a_at) / Fold change /veh TMCC2 (11721928_a_at) / RFU IRGQ (11745062_a_at) / Fold change /veh IRGQ (11745062_a_at) / RFU FAM174B (11720279_a_at) / Fold change /veh FAM174B (11720279_a_at) / RFU TMPRSS4 (11748680_a_at) / Fold change /veh TMPRSS4 (11748680_a_at) / RFU FAM212B (11763350_a_at) / Fold change /veh FAM212B (11763350_a_at) / RFU PLEKHG5 (11743358_a_at) / Fold change /veh PLEKHG5 (11743358_a_at) / RFU ZSCAN30 (11745921_a_at) / Fold change /veh ZSCAN30 (11745921_a_at) / RFU CMKLR1 (11741424_a_at) / Fold change /veh CMKLR1 (11741424_a_at) / RFU LOC101060620 /// MAPK8IP1 (11723275_at) / Fold change /veh LOC101060620 /// MAPK8IP1 (11723275_at) / RFU SPTSSB (11747773_x_at) / Fold change /veh SPTSSB (11747773_x_at) / RFU PRSS12 (11739890_at) / Fold change /veh PRSS12 (11739890_at) / RFU BIN1 (11741810_x_at) / Fold change /veh BIN1 (11741810_x_at) / RFU WNT11 (11732464_a_at) / Fold change /veh WNT11 (11732464_a_at) / RFU C10orf10 (11716521_a_at) / Fold change /veh C10orf10 (11716521_a_at) / RFU C5orf56 (11738089_at) / Fold change /veh C5orf56 (11738089_at) / RFU CYB561 (11721691_x_at) / Fold change /veh CYB561 (11721691_x_at) / RFU ANKRD19P (11752326_a_at) / Fold change /veh ANKRD19P (11752326_a_at) / RFU OR2T12 /// OR2T33 /// OR2T8 (11738714_s_at) / Fold change /veh OR2T12 /// OR2T33 /// OR2T8 (11738714_s_at) / RFU VCAN (11748164_a_at) / Fold change /veh VCAN (11748164_a_at) / RFU JSRP1 (11732532_at) / Fold change /veh JSRP1 (11732532_at) / RFU KRTAP10-11 (11738290_x_at) / Fold change /veh KRTAP10-11 (11738290_x_at) / RFU MYO3A (11730013_a_at) / Fold change /veh MYO3A (11730013_a_at) / RFU EBF3 (11725865_a_at) / Fold change /veh EBF3 (11725865_a_at) / RFU CAMK2N1 (11719241_x_at) / Fold change /veh CAMK2N1 (11719241_x_at) / RFU C5orf56 (11738088_a_at) / Fold change /veh C5orf56 (11738088_a_at) / RFU OLFML3 (11715873_a_at) / Fold change /veh OLFML3 (11715873_a_at) / RFU LOC100653217 /// NTM (11731650_a_at) / Fold change /veh LOC100653217 /// NTM (11731650_a_at) / RFU MAPK11 (11762145_a_at) / Fold change /veh MAPK11 (11762145_a_at) / RFU FIZ1 (11724087_x_at) / Fold change /veh FIZ1 (11724087_x_at) / RFU OASL (11726364_x_at) / Fold change /veh OASL (11726364_x_at) / RFU SOX15 (11748057_x_at) / Fold change /veh SOX15 (11748057_x_at) / RFU CD79A (11719716_a_at) / Fold change /veh CD79A (11719716_a_at) / RFU HIST1H1D (11736915_at) / Fold change /veh HIST1H1D (11736915_at) / RFU CASKIN2 (11723855_a_at) / Fold change /veh CASKIN2 (11723855_a_at) / RFU LOC730098 (11760151_x_at) / Fold change /veh LOC730098 (11760151_x_at) / RFU OR4N2 (11742367_at) / Fold change /veh OR4N2 (11742367_at) / RFU PRRT2 (11749266_a_at) / Fold change /veh PRRT2 (11749266_a_at) / RFU SNX32 (11753110_a_at) / Fold change /veh SNX32 (11753110_a_at) / RFU CDHR5 (11726645_a_at) / Fold change /veh CDHR5 (11726645_a_at) / RFU RCAN1 (11760418_a_at) / Fold change /veh RCAN1 (11760418_a_at) / RFU FAM167A (11723789_a_at) / Fold change /veh FAM167A (11723789_a_at) / RFU FAM26E (11764081_at) / Fold change /veh FAM26E (11764081_at) / RFU ISYNA1 (11749810_s_at) / Fold change /veh ISYNA1 (11749810_s_at) / RFU ACY1 (11761880_at) / Fold change /veh ACY1 (11761880_at) / RFU 11764098_at / Fold change /veh 11764098_at / RFU SAMD14 (11745864_x_at) / Fold change /veh SAMD14 (11745864_x_at) / RFU NPB (11741838_a_at) / Fold change /veh NPB (11741838_a_at) / RFU TMPRSS6 (11731388_a_at) / Fold change /veh TMPRSS6 (11731388_a_at) / RFU KRTAP10-2 (11738614_at) / Fold change /veh KRTAP10-2 (11738614_at) / RFU ARHGAP8 /// PRR5-ARHGAP8 (11727945_x_at) / Fold change /veh ARHGAP8 /// PRR5-ARHGAP8 (11727945_x_at) / RFU KRTAP5-7 /// NADSYN1 (11734609_at) / Fold change /veh KRTAP5-7 /// NADSYN1 (11734609_at) / RFU RASL12 (11751679_a_at) / Fold change /veh RASL12 (11751679_a_at) / RFU CDKN2B (11736163_a_at) / Fold change /veh CDKN2B (11736163_a_at) / RFU PRF1 (11729649_at) / Fold change /veh PRF1 (11729649_at) / RFU, ZNF638 /// ZNF638-IT1 / Fold change vs veh, ZNF638 /// ZNF638-IT1 / RFU, PANK3 / Fold change vs veh, PANK3 / RFU, SH3YL1 / Fold change vs veh, SH3YL1 / RFU, ZEB2 / Fold change vs veh, ZEB2 / RFU, NRIP1 / Fold change vs veh, NRIP1 / RFU, PTTG1IP / Fold change vs veh, PTTG1IP / RFU, CAPN2 / Fold change vs veh, CAPN2 / RFU, MED14 / Fold change vs veh, MED14 / RFU, SNORA58 / Fold change vs veh, SNORA58 / RFU, C1orf63 / Fold change vs veh, C1orf63 / RFU, LRRFIP1 / Fold change vs veh, LRRFIP1 / RFU, NDUFAF7 / Fold change vs veh, NDUFAF7 / RFU, SLC12A2 / Fold change vs veh, SLC12A2 / RFU, IBTK / Fold change vs veh, IBTK / RFU, ESF1 / Fold change vs veh, ESF1 / Fold change vs veh, TMEM50B / RFU, TAOK1 / Fold change vs veh, TAOK1 / RFU, ACBD3 / Fold change vs veh, ACBD3 / RFU, TMA16 / Fold change vs veh, TMA16 / RFU, RWDD3 / Fold change vs veh, RWDD3 / RFU, BCAT1 / Fold change vs veh, BCAT1 / RFU, EDEM3 / Fold change vs veh, EDEM3 / RFU, TMEM33 / Fold change vs veh, TMEM33 / RFU, WDR75 / Fold change vs veh, WDR75 / RFU, AHCTF1 / Fold change vs veh, AHCTF1 / RFU, TFRC / Fold change vs veh, TFRC / RFU, ZDHHC17 / Fold change vs veh, ZDHHC17 / RFU, NOM1 / Fold change vs veh, NOM1 / RFU, ARL8B / Fold change vs veh, ARL8B / RFU, ZBTB11 / Fold change vs veh, ZBTB11 / RFU, TAMM41 / Fold change vs veh, TAMM41 / RFU, KIAA1704 /// LOC100996395 / Fold change vs veh, KIAA1704 /// LOC100996395 / RFU, ING1 / Fold change vs veh, ING1 / RFU, TRMT61B / Fold change vs veh, TRMT61B / RFU, FUBP3 / Fold change vs veh, FUBP3 / RFU, TP53 / Fold change vs veh, TP53 / RFU, TNKS2 / Fold change vs veh, TNKS2 / RFU, ZFP14 / Fold change vs veh, ZFP14 / RFU, ACTR2 / Fold change vs veh, ACTR2 / RFU, PPP3R1 / Fold change vs veh, PPP3R1 / RFU, PIK3R1 / Fold change vs veh, PIK3R1 / RFU, HNRNPA1 / Fold change vs veh, HNRNPA1 / RFU, RNF170 / Fold change vs veh, RNF170 / RFU, ZNF28 / Fold change vs veh, ZNF28 / RFU, RNGTT / Fold change vs veh, RNGTT / RFU, OGT / Fold change vs veh, OGT / RFU, BRD1 / Fold change vs veh, BRD1 / RFU, MARS / Fold change vs veh, MARS / RFU, ZNF655 / Fold change vs veh, ZNF655 / RFU, FAHD1 / Fold change vs veh, FAHD1 / RFU, BDP1 / Fold change vs veh, BDP1 / RFU, LRRCC1 / Fold change vs veh, LRRCC1 / RFU, ARID1A / Fold change vs veh, ARID1A / RFU, ZNF146 / Fold change vs veh, ZNF146 / RFU, ZNF330 / Fold change vs veh, ZNF330 / RFU, GPN3 / Fold change vs veh, GPN3 / RFU, C9orf123 / Fold change vs veh, C9orf123 / RFU, N4BP2L2 / Fold change vs veh, N4BP2L2 / RFU, ARFIP1 / Fold change vs veh, ARFIP1 / RFU, FAM179B / Fold change vs veh, FAM179B / RFU, BCL10 / Fold change vs veh, BCL10 / RFU, UHRF1BP1L / Fold change vs veh, UHRF1BP1L / RFU, BET1 / Fold change vs veh, BET1 / RFU, CNOT2 / Fold change vs veh, CNOT2 / RFU, ZNF268 / Fold change vs veh, ZNF268 / Fold change vs veh, ZNF507 / RFU, DGCR2 / Fold change vs veh, DGCR2 / RFU, WDSUB1 / Fold change vs veh, WDSUB1 / Fold change vs veh, HSP90B1 /// MIR3652 / RFU, ADSS / Fold change vs veh, ADSS / RFU, GK / Fold change vs veh, GK / RFU, ZNF148 / Fold change vs veh, ZNF148 / RFU, TAF9 / Fold change vs veh, TAF9 / RFU, SLC1A5 / Fold change vs veh, SLC1A5 / RFU, SLMO2 / Fold change vs veh, SLMO2 / RFU, ABCC4 / Fold change vs veh, ABCC4 / RFU, LOC101060439 /// RAP1B / Fold change vs veh, LOC101060439 /// RAP1B / RFU, RFX7 / Fold change vs veh, RFX7 / RFU, GTPBP10 / Fold change vs veh, GTPBP10 / RFU, CNEP1R1 / Fold change vs veh, CNEP1R1 / RFU, BIVM-ERCC5 /// ERCC5 / Fold change vs veh, BIVM-ERCC5 /// ERCC5 / RFU, ILF3 / Fold change vs veh, ILF3 / RFU 11762660_at / Fold change /veh 11762660_at / RFU VCAN (11757783_s_at) / Fold change /veh VCAN (11757783_s_at) / RFU DDX43 (11728927_at) / Fold change /veh DDX43 (11728927_at) / RFU KRT8 (11758188_x_at) / Fold change /veh KRT8 (11758188_x_at) / RFU NKD1 (11759106_at) / Fold change /veh NKD1 (11759106_at) / RFU SRD5A1 (11742802_a_at) / Fold change /veh SRD5A1 (11742802_a_at) / RFU TPSAB1 /// TPSB2 (11721975_s_at) / Fold change /veh TPSAB1 /// TPSB2 (11721975_s_at) / RFU GSTM3 (11746129_a_at) / Fold change /veh GSTM3 (11746129_a_at) / RFU IL23R (11737362_x_at) / Fold change /veh IL23R (11737362_x_at) / RFU TMEM51 (11727254_a_at) / Fold change /veh TMEM51 (11727254_a_at) / RFU PIWIL2 (11732686_x_at) / Fold change /veh PIWIL2 (11732686_x_at) / RFU ORM1 (11744905_x_at) / Fold change /veh ORM1 (11744905_x_at) / RFU CCDC152 (11743942_at) / Fold change /veh CCDC152 (11743942_at) / RFU ECM1 (11717891_a_at) / Fold change /veh ECM1 (11717891_a_at) / RFU IL23R (11748794_a_at) / Fold change /veh IL23R (11748794_a_at) / RFU TNFAIP8L3 (11732012_x_at) / Fold change /veh TNFAIP8L3 (11732012_x_at) / RFU MBOAT4 (11741988_at) / Fold change /veh MBOAT4 (11741988_at) / RFU 11764193_at / Fold change /veh 11764193_at / RFU TMEM53 (11763286_at) / Fold change /veh TMEM53 (11763286_at) / RFU MAGEB2 (11727129_at) / Fold change /veh MAGEB2 (11727129_at) / RFU TMEM200A (11744735_a_at) / Fold change /veh TMEM200A (11744735_a_at) / RFU CCDC152 (11751479_a_at) / Fold change /veh CCDC152 (11751479_a_at) / RFU FAM211A (11726209_a_at) / Fold change /veh FAM211A (11726209_a_at) / RFU RGS16 (11746705_a_at) / Fold change /veh RGS16 (11746705_a_at) / RFU VCAN (11755009_s_at) / Fold change /veh VCAN (11755009_s_at) / RFU RHOB (11743442_s_at) / Fold change /veh RHOB (11743442_s_at) / RFU RGS16 (11720943_a_at) / Fold change /veh RGS16 (11720943_a_at) / RFU RGS16 (11720944_at) / Fold change /veh RGS16 (11720944_at) / RFU, VPS4B / Fold change vs veh, VPS4B / RFU, CREB1 / Fold change vs veh, CREB1 / RFU, DNAJC13 / Fold change vs veh, DNAJC13 / RFU, GNAQ / Fold change vs veh, GNAQ / RFU, CDK5R1 / Fold change vs veh, CDK5R1 / RFU, ZRANB3 / Fold change vs veh, ZRANB3 / RFU, CUL4A / Fold change vs veh, CUL4A / RFU, CCNY / Fold change vs veh, CCNY / RFU, UFL1 / Fold change vs veh, UFL1 / RFU, COG3 / Fold change vs veh, COG3 / RFU, DIAPH2 / Fold change vs veh, DIAPH2 / RFU, SKA2 / Fold change vs veh, SKA2 / RFU, AFF3 / Fold change vs veh, AFF3 / RFU, LMF1 / Fold change vs veh, LMF1 / RFU, IPO11 / Fold change vs veh, IPO11 / RFU, DFFB / Fold change vs veh, DFFB / RFU, FOXP1 / Fold change vs veh, FOXP1 / RFU, CARD8 / Fold change vs veh, CARD8 / RFU, STRN3 / Fold change vs veh, STRN3 / RFU, ADK / Fold change vs veh, ADK / RFU, RASSF2 / Fold change vs veh, RASSF2 / RFU, WIPF1 / Fold change vs veh, WIPF1 / RFU, LARP1B / Fold change vs veh, LARP1B / RFU, RASA1 / Fold change vs veh, RASA1 / RFU, RB1 / Fold change vs veh, RB1 / RFU, PPFIA1 / Fold change vs veh, PPFIA1 / RFU, MAT2A / Fold change vs veh, MAT2A / RFU, CCT5 / Fold change vs veh, CCT5 / RFU, WDR92 / Fold change vs veh, WDR92 / RFU, CUX1 / Fold change vs veh, CUX1 / RFU, TTC7A / Fold change vs veh, TTC7A / RFU, TMEM135 / Fold change vs veh, TMEM135 / RFU, DEPTOR / Fold change vs veh, DEPTOR / RFU, CPM / Fold change vs veh, CPM / RFU, DNAJB6 / Fold change vs veh, DNAJB6 / RFU, CACNA2D3 / Fold change vs veh, CACNA2D3 / RFU, DTX4 / Fold change vs veh, DTX4 / RFU, TFCP2 / Fold change vs veh, TFCP2 / RFU, GMCL1 /// GMCL1P1 / Fold change vs veh, GMCL1 /// GMCL1P1 / RFU, AEBP2 / Fold change vs veh, AEBP2 / RFU, SNHG1 /// SNORD22 /// SNORD25 /// SNORD26 /// SNORD27 /// SNORD28 /// SNORD29 /// SNORD31 / Fold change vs veh, SNHG1 /// SNORD22 /// SNORD25 /// SNORD26 /// SNORD27 /// SNORD28 /// SNORD29 /// SNORD31 / Fold change (Aza/veh), C12orf56 (ProbeSet 11735607_a_at) / Fold change (ACY-1035/veh), C12orf56 (ProbeSet 11735607_a_at) / Fold change (Aza/veh), FGFR1OP (ProbeSet 11751329_s_at) / Fold change (ACY-1035/veh), FGFR1OP (ProbeSet 11751329_s_at) / Fold change (Aza/veh), VPS36 (ProbeSet 11739960_a_at) / Fold change (ACY-1035/veh), VPS36 (ProbeSet 11739960_a_at) / RFU SYPL1 (11715823_x_at) / Fold change /veh SYPL1 (11715823_x_at) / RFU IGFBP7 (11715501_s_at) / Fold change /veh IGFBP7 (11715501_s_at) / RFU REEP3 (11722064_at) / Fold change /veh REEP3 (11722064_at) / RFU IGLL1 (11728026_x_at) / Fold change /veh IGLL1 (11728026_x_at): dose or concentration left out as unconfirmed",
  "conditions": "ProbeSet 11759095_at; LIST D",
  "data": [
    {"smiles": "Nc1ccc(-c2cccs2)cc1NC(=O)c1ccc2c(c1)cc(C1CC1)n2CCN1CCOCC1", "note": "[ACY-1035]", "values": [
      {"measurement": "RFU, GNAQ", "value": 901.39, "unit": "RFU"}
    ]}
  ]
}
